Laboratory results from article PMC3292467, “Comparison between ^68Ga-bombesin (^68Ga-BZH3) and the cRGD tetramer ^68Ga-RGD4 studies in an experimental nude rat model with a neuroendocrine pancreatic tumor cell line” (EJNMMI Research, 2011).
Where two headings read alike, the source gives them in different places. Square brackets hold non-standard residues; d marks the D form.

How the values were obtained:
[1] = Dynamic PET, tumor uptake (SUV) in AR42J tumor-bearing nude rats; format: in vivo, rat; conditions: Wistar (nude), rat, tumor (AR42J), iv, i.v. 20 to 40 MBq (BZH3, n = 5), 10 to 30 MBq (RGD4, n = 4), nude rats, read-out: SUV (standardized uptake value) in tumor
From the text: (§1) Irregular regions of interest were drawn manually.

AR42J tumor [2] = test: as above; format: in vivo, rat; conditions: i.v. 20 to 40 MBq (BZH3, n = 5), 10 to 30 MBq (RGD4, n = 4), nude rats
From the text: as §1

ανβ3 = ανβ3 (Homo sapiens, UniProt P05106+P06756); test: biochemical
AR42J tumor [3] = conditions: AR42J tumor-bearing nude rats, n = 5 (BZH3), n = 4 (RGD4); for VB (vessel density, fractional blood volume): dynamic PET 60 min, i.v.
Experimental: The AR42J cell line, derived from a rat exocrine pancreas neuroendocrine tumor, was used. Cells were obtained from the European Collection of Cell Cultures and were grown in RPMI 1640 medium supplemented with 2 mmol/L glutamine and 10% fetal calf serum. Adherent cells were dislodged with trypsin/ethylenediaminetetraacetic acid (0.02%: 0.05%, w/v). For PET-studies, 5 × 10^6 cells in 200 μl RPMI without supplements were inoculated subcutaneously in the right hind leg of Wistar rats.
The study included nine AR 42 J tumor-bearing nude rats. We grouped all rats according to PET tracers (B, ^68Ga-BZH3 and R, ^68Ga-RGD4), used in dynamic PET scanning, as noted in Table 1. Dynamic PET studies were performed for 60 min after the intravenous application of 10 to 30 MBq ^68Ga-RGD4 or 20 to 40 MBq ^68Ga-BZH3, using a 28-frame protocol (ten frames of 30 s, five frames of 60 s, five frames of 120 s, and eight frames of 300 s). Two animals can be examined in parallel per scanning by a homemade injector (Figure 2). A dedicated PET-CT system (Biograph™ mCT, 128 S/X, Siemens Co, Erlangen, Germany) with an axial field of view of 21.6 cm with TrueV, operated in a three-dimensional mode, was used for all animal studies. The system provides the simultaneous acquisition of 369 transverse slices with a slice thickness of 0.6 mm. The animals were positioned in the axial plane of the system to maintain the best resolution in the center of the system. All PET images were attenuation-corrected and an image matrix of 400 × 400 pixels was used for iterative image reconstruction (voxel size 1.565 × 1.565 × 0.6 mm) based on the syngo MI PET/CT 2009C software version. After the end of the dynamic series an ultrahigh resolution CT with 85 mA, 80 kV and a pitch of 0.85 cm was performed for attenuation correction of the acquired dynamic emission data. The reconstructed images were converted to SUV images based on the formula [24]: SUV = Tissue concentration (becquerel per gram)/[injected dose ([…]))/body weight (gram)]. The SUV 55 to 60 min post-injection was used for the assessment of both tracers. The SUV images were used for all further quantitative evaluations.
Dynamic PET data were evaluated using the software package PMOD (provided courtesy of PMOD Technologies Ltd., Zuerich, Switzerland). Areas with enhanced tracer uptake on transaxial, coronal, and sagittal images were evaluated visually. A volume of interest consists of several regions of interest over the target area. Irregular regions of interest were drawn manually. A detailed quantitative evaluation of tracer kinetics requires the use of compartmental modeling. A two-tissue-compartment model was used to evaluate the dynamic studies.
In animals, a partial volume correction must be applied to the data due to the small size of the input and tumor volumes of interest (VOIs). Herein, the recovery coefficient was 0.85 for a diameter of 8 mm and 0.32 for a diameter of 3 mm based on phantom measurements as well as the recent parameter settings used with the reconstruction software. For the input function the mean values of the VOI data obtained from the heart were used. We used a preprocessing tool, which allowed a fit of the input curve by a sum of up to three decaying exponentials. The learning-machine two-tissue-compartment model was used for the fitting and provided five parameters: the transport parameters for tracer into and out of the cell, K1 and k2, the parameters for phosphorylation and dephosphorylation of intracellular tracer, k3 and k4, and the fractional blood volume, also called vessel density (VB), which reflects the amount of blood in the VOI. Following compartment analysis, we calculated the global influx of tracer from the compartment data using the formula: influx = (K1 × k3)/(k2 + k3). […] The model parameters were accepted when K1 - k4 was less than 1 and VB exceeded 0. The unit for the rate constants K1 to k4 was 1/min.

[4] = 3D fused PET-CT images; male rat
Experimental: The study included nine AR 42 J tumor-bearing nude rats. We grouped all rats according to PET tracers (B, ^68Ga-BZH3 and R, ^68Ga-RGD4), used in dynamic PET scanning, as noted in Table 1. Dynamic PET studies were performed for 60 min after the intravenous application of 10 to 30 MBq ^68Ga-RGD4 or 20 to 40 MBq ^68Ga-BZH3, using a 28-frame protocol (ten frames of 30 s, five frames of 60 s, five frames of 120 s, and eight frames of 300 s). Two animals can be examined in parallel per scanning by a homemade injector (Figure 2). A dedicated PET-CT system (Biograph™ mCT, 128 S/X, Siemens Co, Erlangen, Germany) with an axial field of view of 21.6 cm with TrueV, operated in a three-dimensional mode, was used for all animal studies. The system provides the simultaneous acquisition of 369 transverse slices with a slice thickness of 0.6 mm. The animals were positioned in the axial plane of the system to maintain the best resolution in the center of the system. […] The SUV images were used for all further quantitative evaluations.
Dynamic PET data were evaluated using the software package PMOD (provided courtesy of PMOD Technologies Ltd., Zuerich, Switzerland). Areas with enhanced tracer uptake on transaxial, coronal, and sagittal images were evaluated visually. […] A detailed quantitative evaluation of tracer kinetics requires the use of compartmental modeling. […]

integrin ανβ3, P06756 = molecular target: T1, integrin ανβ3, P06756; test: not stated; IC50 of ^68Ga-RGD4 for ανβ3; format, competitor and conditions not told; conditions: remark: other sources report otherwise
T1 chain 1: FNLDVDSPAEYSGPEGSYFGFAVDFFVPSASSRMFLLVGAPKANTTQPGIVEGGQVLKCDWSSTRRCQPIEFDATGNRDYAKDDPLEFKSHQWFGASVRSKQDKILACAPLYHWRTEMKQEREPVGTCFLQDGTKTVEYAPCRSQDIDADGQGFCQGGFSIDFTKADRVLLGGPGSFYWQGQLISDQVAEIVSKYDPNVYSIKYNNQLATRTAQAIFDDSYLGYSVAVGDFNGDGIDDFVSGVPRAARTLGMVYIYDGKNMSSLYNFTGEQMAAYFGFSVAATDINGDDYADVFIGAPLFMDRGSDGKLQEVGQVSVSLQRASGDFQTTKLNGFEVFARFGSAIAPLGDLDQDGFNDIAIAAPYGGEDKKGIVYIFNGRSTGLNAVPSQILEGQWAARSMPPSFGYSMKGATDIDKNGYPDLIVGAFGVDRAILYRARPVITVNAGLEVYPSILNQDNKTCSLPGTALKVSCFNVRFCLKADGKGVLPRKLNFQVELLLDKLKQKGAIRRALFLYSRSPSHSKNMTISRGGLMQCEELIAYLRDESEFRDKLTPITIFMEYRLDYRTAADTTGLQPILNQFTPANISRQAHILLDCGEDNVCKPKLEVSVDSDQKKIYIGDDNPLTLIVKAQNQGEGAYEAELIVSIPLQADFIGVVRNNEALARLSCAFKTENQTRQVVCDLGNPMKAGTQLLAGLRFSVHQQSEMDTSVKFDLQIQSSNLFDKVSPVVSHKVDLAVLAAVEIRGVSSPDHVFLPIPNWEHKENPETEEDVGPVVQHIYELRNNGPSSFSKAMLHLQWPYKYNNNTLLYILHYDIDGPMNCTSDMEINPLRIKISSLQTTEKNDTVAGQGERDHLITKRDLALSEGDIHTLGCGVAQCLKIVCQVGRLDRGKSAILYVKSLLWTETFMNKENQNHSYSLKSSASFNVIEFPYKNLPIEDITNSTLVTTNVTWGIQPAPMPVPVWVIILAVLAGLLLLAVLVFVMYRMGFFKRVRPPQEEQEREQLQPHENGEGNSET
T1 chain 2: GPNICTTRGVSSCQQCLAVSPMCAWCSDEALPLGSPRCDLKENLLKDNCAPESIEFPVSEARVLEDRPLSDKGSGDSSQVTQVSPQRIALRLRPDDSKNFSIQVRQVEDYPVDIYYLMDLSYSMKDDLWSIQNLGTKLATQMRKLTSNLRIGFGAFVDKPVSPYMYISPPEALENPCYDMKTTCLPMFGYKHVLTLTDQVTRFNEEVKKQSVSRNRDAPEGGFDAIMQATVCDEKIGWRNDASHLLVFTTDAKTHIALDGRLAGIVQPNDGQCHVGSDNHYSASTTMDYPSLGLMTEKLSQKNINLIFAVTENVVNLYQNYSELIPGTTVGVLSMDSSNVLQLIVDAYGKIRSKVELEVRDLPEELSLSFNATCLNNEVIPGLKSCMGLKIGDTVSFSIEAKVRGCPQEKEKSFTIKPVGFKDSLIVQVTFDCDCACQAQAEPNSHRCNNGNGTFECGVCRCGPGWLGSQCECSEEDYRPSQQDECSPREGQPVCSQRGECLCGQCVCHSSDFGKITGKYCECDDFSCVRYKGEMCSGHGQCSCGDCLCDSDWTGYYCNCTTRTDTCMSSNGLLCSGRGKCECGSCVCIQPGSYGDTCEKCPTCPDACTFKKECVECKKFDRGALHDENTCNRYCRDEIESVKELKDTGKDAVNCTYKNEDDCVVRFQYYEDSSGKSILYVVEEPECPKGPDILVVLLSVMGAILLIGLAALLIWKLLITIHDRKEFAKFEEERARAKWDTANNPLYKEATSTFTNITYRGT

[5] = median, between tracers P 0.05*

For `N=C(N)NCCC[C@@H]1NC(=O)[C@H](CCCCNC(=O)COCCOCCNC(=O)CSC2CC(=O)N(CCCC(=O)NCCCC[C@H](NC(=O)CCCN3C(=O)CC(SCC(=O)NCCOCCOCC(=O)NCCCC[C@@H]4NC(=O)[C@@H](Cc5ccccc5)NC(=O)[C@H](CC(=O)O)NC(=O)CNC(=O)[C@H](CCCNC(=N)N)NC4=O)C3=O)C(=O)NCCCC[C@H](NC(=O)[C@H](CCCCNC(=O)CCCN3C(=O)CC(SCC(=O)NCCOCCOCC(=O)NCCCC[C@@H]4NC(=O)[C@@H](Cc5ccccc5)NC(=O)[C@H](CC(=O)O)NC(=O)CNC(=O)[C@H](CCCNC(=N)N)NC4=O)C3=O)NC(=O)CCCN3C(=O)CC(SCC(=O)NCCOCCOCC(=O)NCCCC[C@@H]4NC(=O)[C@@H](Cc5ccccc5)NC(=O)[C@H](CC(=O)O)NC(=O)CNC(=O)[C@H](CCCNC(=N)N)NC4=O)C3=O)C(=O)N[C@@H](CCCCNC(=O)CN3CCN(CC(=O)O)CCN(CC(=O)O)CCN(CC(=O)O)CC3)C(N)=O)C2=O)NC(=O)[C@@H](Cc2ccccc2)NC(=O)[C@H](CC(=O)O)NC(=O)CNC1=O` (some centres unmarked) [^68Ga-RGD4, metal not drawn], the SUV ([1]; mean, 55 to 60 min post-injection) was 1.02 SUV, the SUV ([1]; median, 55 (56) to 60 min post-injection, between tracers P 0.8065) was 0.989 SUV and the “SUV (standardized uptake value) in tumor” value (AR42J tumor [2]; maximum, 55 to 60 min post-injection) was 1.3084. For the same molecule, the “SUV (standardized uptake value) in tumor” value (AR42J tumor [2]; median, 55 (56) to 60 min post-injection, between tracers P 0.8065, listed as 68Ga-RGD tetramer) was 0.99, the “SUV (standardized uptake value) in tumor” value (AR42J tumor [2]; minimum, 55 to 60 min post-injection) was 0.7833 and the IC50 (ανβ3) was 4.97 µM. The “VB (vessel density, fractional blood volume)” value (AR42J tumor [3]; maximum) was 0.0713, the “K1 (transport into the cell; associated with receptor binding)” value (AR42J tumor [3]; maximum) was 0.3195 min⁻¹ and the “RBP (receptor binding potential)” value (AR42J tumor [3]; maximum) was 0.0514. The “k2 (displacement from the receptor)” value (AR42J tumor [3]; maximum) was 0.6152 min⁻¹, the “k3 (cellular internalisation)” value (AR42J tumor [3]; maximum) was 0.1352 min⁻¹ and the “k4 (externalization)” value (AR42J tumor [3]; maximum) was 0.0504 min⁻¹. The “VB (vessel density, fractional blood volume)” value (AR42J tumor [3]; mean) was 0.0582, the “K1 (transport into the cell; associated with receptor binding)” value (AR42J tumor [3]; mean) was 0.2739 min⁻¹ and the “RBP (receptor binding potential)” value (AR42J tumor [3]; mean) was 0.0453. For the same molecule, the “k2 (displacement from the receptor)” value (AR42J tumor [3]; mean) was 0.5386 min⁻¹, the “k3 (cellular internalisation)” value (AR42J tumor [3]; mean) was 0.1097 min⁻¹ and the “k4 (externalization)” value (AR42J tumor [3]; mean) was 0.0443 min⁻¹. The “VB (vessel density, fractional blood volume)” value (AR42J tumor [3]; [5]) was 0.0574, the “RBP (receptor binding potential)” value (AR42J tumor [3]; median, between tracers P 0.0275*) was 0.0442 and the “K1 (transport into the cell; associated with receptor binding)” value (AR42J tumor [3]; [5]) was 0.2728 min⁻¹. For the same molecule, the “k4 (externalization)” value (AR42J tumor [3]; [5]) was 0.0442 min⁻¹, the “k2 (displacement from the receptor)” value (AR42J tumor [3]; median, between tracers P 0.4624) was 0.5721 min⁻¹ and the “k3 (cellular internalisation)” value (AR42J tumor [3]; median, between tracers P 0.8065) was 0.1180 min⁻¹. For the same molecule, the “VB (vessel density, fractional blood volume)” value (AR42J tumor [3]; minimum) was 0.0468, the “K1 (transport into the cell; associated with receptor binding)” value (AR42J tumor [3]; minimum) was 0.2304 min⁻¹ and the “RBP (receptor binding potential)” value (AR42J tumor [3]; minimum) was 0.0414. For the same molecule, the “k2 (displacement from the receptor)” value (AR42J tumor [3]; minimum) was 0.3952 min⁻¹, the “k3 (cellular internalisation)” value (AR42J tumor [3]; minimum) was 0.0678 min⁻¹ and the “k4 (externalization)” value (AR42J tumor [3]; minimum) was 0.0382 min⁻¹. The “tracer uptake in other sites” value [4] was “heart (exhibit for ^68Ga-RGD4), liver, kidney, urinary bladder, and testicles”.

Work on cyclo(RGD[dF]K) (not fully specified (residue 5); also: tetramer on DOTA-Mal4 core, 68Ga on DOTA) [^68Ga-RGD tetramer (^68Ga-labelled DOTA-comprising RGD tetramer)] yielded an IC50 (integrin ανβ3, P06756) of 4.97 µM.
